Results taken from patent US8445511B2, “Quinoline or quinoxaline derivatives for treating neurodegenerative diseases” (Centre National de la Recherche Scientifique (SNRS), priority 2008, dated 2013).

Test system: PC12 pheochromocytoma cells
Experiment: Differentiating activity on PC12 pheochromocytoma cells
Format: cell-based
Conditions: 100 nM and 1 μM
Description: The cells are maintained in […] flasks at 37° C. in a humid atmosphere enriched by 5% CO2 in RPMI medium supplemented with 10% horse serum, 5% fetal calf serum, 1% glutamine and 1% penicillin/streptomycin mixture. The horse and fetal calf serums are decomplemented for 40 minutes at 56° C. before use. The cultures are divided when they reach 80% confluence, approximately every 3 days. Each operation is performed by scraping the cells and then centrifugation at 1,000 rpm for 5 minutes, mechanical dissociation of the cell aggregates and inoculation at the dilution desired. Before treatment, the cells are cultivated 5 days in a deprivation medium composed of RPMI supplemented with 1% horse serum, 0.5% fetal calf serum, 1% glutamine, 1% penicillin/streptomycin and 50 ng/ml NGF (nerve growth factor). After 5 days of pretreatment with NGF, the cells are washed twice with PBS (phosphate buffered saline), taken up in deprivation medium, scraped and pelleted at 1,000 rpm for 5 minutes. The cells are then dissociated, counted on a hemocytometer and inoculated at a concentration of 15.6×10^3 cells/cm^2. After 4 hours, the cells are treated by various compounds of the invention at the concentrations desired (stock solutions in absolute ethanol and then a series of dilutions in water). […] At least 20 differentiated cells per well are photographed at random and the length of their neurites are measured using the NeuronJ macro of the ImageJ software. The number of neurites is also counted. Mean total neurite length and number of neurites are then calculated per cell. […] In order to quantify the differentiation of PC12 cells we calculated the ratio between the number of cells emitting dendritic extensions and the total number of cells 48 hours after treatment with our substances at 100 nM and at 1 μM. Morphological changes at the microscopic level were quantified for the cells emitting extensions at approximately 100 cells per condition. Thus number of neurites and mean neurite length per cell were measured using the NeuronJ measurement software by ImageJ.

For C#CC(O)CCCCCCCCCCCCC#Cc1ccc2ccccc2n1 (stereo not drawn) [Compound N3, 17-(quinolin-2-yl)heptadec-1,16-diyn-3-ol], the “cells producing extensions (percentage of PC12 cells differentiated) by comparison with untreated cells” value (48 hours after treatment, FIG. 1A) was “two to three times as many cells produce extensions”, the “mean neurite length per cell compared to the control” value (PC12 cells, FIG. 1B) was “longer” and the “number of neurites per cell compared to the control” value (PC12 cells, FIG. 1B) was “more”.
